Test results published in the NIST ThermoML archive (doi:10.1021/je700260f).
Values joined by “and” are separate entries in the source; they are usually repeats but may differ in a detail not shown here. Equal values may be shown once.

Details: Liquid, Vibrating tube method

FC(C(F)(F)F)C(F)(F)F [1,1,1,2,3,3,3-heptafluoropropane]
Details | mass density
323.15 K, 24369 kPa | 1441.6 kg/m3
323.15 K, 24448 kPa | 1441.9 kg/m3
323.15 K, 24476 kPa | 1442 kg/m3
323.15 K, 24507 kPa | 1442.1 kg/m3
323.15 K, 24535 kPa | 1442.3 kg/m3
323.15 K, 24630 kPa | 1442.7 kg/m3
323.15 K, 25178 kPa | 1445.1 kg/m3
323.15 K, 25221 kPa | 1445.2 kg/m3
323.15 K, 25254 kPa | 1445.3 kg/m3
323.15 K, 25279 kPa | 1445.5 kg/m3
323.15 K, 25317 kPa | 1445.6 kg/m3
323.15 K, 25347 kPa | 1445.8 kg/m3
323.15 K, 25380 kPa | 1445.9 kg/m3
323.15 K, 25479 kPa | 1446.3 kg/m3
323.15 K, 25518 kPa | 1446.5 kg/m3
323.15 K, 25548 kPa | 1446.5 kg/m3
323.15 K, 25582 kPa | 1446.8 kg/m3
323.15 K, 25619 kPa | 1447 kg/m3
323.15 K, 25648 kPa | 1447.1 kg/m3
323.15 K, 25678 kPa | 1447.1 kg/m3
323.15 K, 25713 kPa | 1447.3 kg/m3
323.15 K, 25743 kPa | 1447.4 kg/m3
323.15 K, 25772 kPa | 1447.5 kg/m3
323.15 K, 25810 kPa | 1447.7 kg/m3
323.15 K, 25835 kPa | 1447.8 kg/m3
323.15 K, 25868 kPa | 1447.9 kg/m3
323.15 K, 25896 kPa | 1448 kg/m3
323.15 K, 25923 kPa | 1448.1 kg/m3
323.15 K, 26006 kPa | 1448.7 kg/m3
323.15 K, 26035 kPa | 1448.7 kg/m3
323.15 K, 26099 kPa | 1449 kg/m3
323.15 K, 26134 kPa | 1449.1 kg/m3
323.15 K, 26161 kPa | 1449.1 kg/m3
323.15 K, 26196 kPa | 1449.4 kg/m3
323.15 K, 26255 kPa | 1449.6 kg/m3
323.15 K, 26288 kPa | 1449.7 kg/m3
323.15 K, 27476 kPa | 1454.6 kg/m3
323.15 K, 27515 kPa | 1454.7 kg/m3
323.15 K, 27549 kPa | 1454.9 kg/m3
323.15 K, 27579 kPa | 1455 kg/m3
323.15 K, 27618 kPa | 1455.2 kg/m3
323.15 K, 27658 kPa | 1455.4 kg/m3
323.15 K, 27685 kPa | 1455.4 kg/m3
323.15 K, 27721 kPa | 1455.7 kg/m3
323.15 K, 27748 kPa | 1455.7 kg/m3
323.15 K, 27786 kPa | 1455.9 kg/m3
323.15 K, 27821 kPa | 1456 kg/m3
323.15 K, 27852 kPa | 1456 kg/m3
323.15 K, 27887 kPa | 1456.3 kg/m3
323.15 K, 27918 kPa | 1456.3 kg/m3
323.15 K, 27943 kPa | 1456.5 kg/m3
323.15 K, 27982 kPa | 1456.6 kg/m3
323.15 K, 28017 kPa | 1456.8 kg/m3
323.15 K, 28049 kPa | 1456.7 kg/m3
323.15 K, 28080 kPa | 1457 kg/m3
323.15 K, 28115 kPa | 1457.1 kg/m3
323.15 K, 28148 kPa | 1457.2 kg/m3
323.15 K, 28180 kPa | 1457.4 kg/m3
323.15 K, 28217 kPa | 1457.6 kg/m3
323.15 K, 28245 kPa | 1457.7 kg/m3
323.15 K, 28276 kPa | 1457.9 kg/m3
323.15 K, 28309 kPa | 1457.9 kg/m3
323.15 K, 28337 kPa | 1458 kg/m3
323.15 K, 28375 kPa | 1458.1 kg/m3
323.15 K, 28403 kPa | 1458.3 kg/m3
323.15 K, 28445 kPa | 1458.5 kg/m3
323.15 K, 28474 kPa | 1458.6 kg/m3
323.15 K, 28506 kPa | 1458.7 kg/m3
323.15 K, 28534 kPa | 1458.7 kg/m3
323.15 K, 28571 kPa | 1459 kg/m3
323.15 K, 28603 kPa | 1459.1 kg/m3
323.15 K, 28633 kPa | 1459.2 kg/m3
323.15 K, 28660 kPa | 1459.4 kg/m3
323.15 K, 28691 kPa | 1459.5 kg/m3
323.15 K, 28718 kPa | 1459.6 kg/m3
323.15 K, 28763 kPa | 1459.8 kg/m3
323.15 K, 28799 kPa | 1459.9 kg/m3
323.15 K, 28837 kPa | 1459.9 kg/m3
323.15 K, 28870 kPa | 1460.1 kg/m3
323.15 K, 28904 kPa | 1460.2 kg/m3
323.15 K, 28935 kPa | 1460.4 kg/m3
323.15 K, 28970 kPa | 1460.5 kg/m3
323.15 K, 28997 kPa | 1460.6 kg/m3
323.15 K, 29033 kPa | 1460.8 kg/m3
323.15 K, 29063 kPa | 1460.9 kg/m3
323.15 K, 29088 kPa | 1460.9 kg/m3
323.15 K, 29121 kPa | 1461.1 kg/m3
323.15 K, 29162 kPa | 1461.2 kg/m3
323.15 K, 29188 kPa | 1461.4 kg/m3
323.15 K, 29756 kPa | 1463.5 kg/m3
323.15 K, 29784 kPa | 1463.7 kg/m3
323.15 K, 29822 kPa | 1463.8 kg/m3
323.15 K, 29860 kPa | 1464 kg/m3
323.15 K, 29886 kPa | 1464 kg/m3
323.15 K, 29919 kPa | 1464.2 kg/m3
323.15 K, 29949 kPa | 1464.3 kg/m3
323.15 K, 30616 kPa | 1466.8 kg/m3
323.15 K, 30653 kPa | 1467 kg/m3
323.15 K, 30689 kPa | 1467.1 kg/m3
323.15 K, 30736 kPa | 1467.2 kg/m3
323.15 K, 30764 kPa | 1467.3 kg/m3
323.15 K, 30805 kPa | 1467.5 kg/m3
323.15 K, 30843 kPa | 1467.7 kg/m3
323.15 K, 30885 kPa | 1467.8 kg/m3
323.15 K, 32658 kPa | 1474.5 kg/m3
323.15 K, 32686 kPa | 1474.5 kg/m3
323.15 K, 34384 kPa | 1480.6 kg/m3
323.15 K, 34387 kPa | 1480.4 kg/m3 and 1480.6 kg/m3
323.16 K, 14143 kPa | 1389.6 kg/m3
323.16 K, 14163 kPa | 1389.5 kg/m3
323.16 K, 14186 kPa | 1389.6 kg/m3
323.16 K, 14200 kPa | 1389.8 kg/m3
323.16 K, 14366 kPa | 1390.8 kg/m3
323.16 K, 14386 kPa | 1390.8 kg/m3
323.16 K, 14409 kPa | 1390.9 kg/m3
323.16 K, 14427 kPa | 1391.1 kg/m3
323.16 K, 14450 kPa | 1391.3 kg/m3
323.16 K, 14470 kPa | 1391.5 kg/m3
323.16 K, 14492 kPa | 1391.6 kg/m3
323.16 K, 14509 kPa | 1391.5 kg/m3
323.16 K, 16696 kPa | 1404.2 kg/m3
323.16 K, 16719 kPa | 1404.2 kg/m3
323.16 K, 16735 kPa | 1404.5 kg/m3
323.16 K, 16783 kPa | 1404.5 kg/m3
323.16 K, 29984 kPa | 1464.4 kg/m3
323.16 K, 30010 kPa | 1464.6 kg/m3
323.16 K, 30040 kPa | 1464.7 kg/m3
323.16 K, 30071 kPa | 1464.8 kg/m3
323.16 K, 30102 kPa | 1464.9 kg/m3
323.16 K, 30132 kPa | 1465 kg/m3
323.16 K, 30163 kPa | 1465.1 kg/m3
323.16 K, 30194 kPa | 1465.2 kg/m3
323.16 K, 30221 kPa | 1465.4 kg/m3
323.16 K, 30252 kPa | 1465.5 kg/m3
323.16 K, 30280 kPa | 1465.6 kg/m3
323.16 K, 30311 kPa | 1465.6 kg/m3
323.16 K, 30340 kPa | 1465.8 kg/m3
323.16 K, 30380 kPa | 1466 kg/m3
323.16 K, 30414 kPa | 1466.1 kg/m3
323.16 K, 30444 kPa | 1466.3 kg/m3
323.16 K, 30470 kPa | 1466.4 kg/m3
323.16 K, 30505 kPa | 1466.5 kg/m3
323.16 K, 30532 kPa | 1466.6 kg/m3
323.16 K, 30554 kPa | 1466.6 kg/m3
323.16 K, 30581 kPa | 1466.8 kg/m3
333.13 K, 1640 kPa | 1225.8 kg/m3
333.13 K, 1661 kPa | 1226.3 kg/m3
333.13 K, 1691 kPa | 1226.6 kg/m3
333.13 K, 1709 kPa | 1227.1 kg/m3
333.13 K, 1736 kPa | 1227.6 kg/m3
333.13 K, 1764 kPa | 1228 kg/m3
333.13 K, 1789 kPa | 1228.4 kg/m3
333.13 K, 1815 kPa | 1229 kg/m3
333.13 K, 1839 kPa | 1229.7 kg/m3
333.13 K, 1866 kPa | 1229.9 kg/m3
333.13 K, 1898 kPa | 1230.4 kg/m3
333.13 K, 1924 kPa | 1231 kg/m3
333.13 K, 1944 kPa | 1231.2 kg/m3
333.13 K, 1976 kPa | 1231.8 kg/m3
333.13 K, 2004 kPa | 1232.3 kg/m3
333.13 K, 2034 kPa | 1232.9 kg/m3
333.13 K, 2056 kPa | 1233.2 kg/m3
333.13 K, 2088 kPa | 1233.7 kg/m3
333.13 K, 2113 kPa | 1234.2 kg/m3
333.13 K, 2138 kPa | 1234.6 kg/m3
333.13 K, 2357 kPa | 1238.4 kg/m3
333.13 K, 2604 kPa | 1242.4 kg/m3
333.13 K, 2744 kPa | 1244.5 kg/m3
333.13 K, 2770 kPa | 1244.9 kg/m3
333.13 K, 2793 kPa | 1245.1 kg/m3
333.13 K, 2828 kPa | 1245.9 kg/m3
333.13 K, 2863 kPa | 1246.2 kg/m3
333.13 K, 2890 kPa | 1246.6 kg/m3
333.13 K, 2915 kPa | 1247.1 kg/m3
333.13 K, 2950 kPa | 1247.6 kg/m3
333.13 K, 3233 kPa | 1251.7 kg/m3
333.13 K, 3261 kPa | 1252.3 kg/m3
333.13 K, 3298 kPa | 1252.9 kg/m3
333.13 K, 3326 kPa | 1253.1 kg/m3
333.13 K, 3358 kPa | 1253.7 kg/m3
333.13 K, 3391 kPa | 1254.2 kg/m3
333.13 K, 3420 kPa | 1254.6 kg/m3
333.13 K, 3448 kPa | 1255 kg/m3
333.13 K, 3488 kPa | 1255.4 kg/m3
333.13 K, 3517 kPa | 1256 kg/m3
333.13 K, 3542 kPa | 1256.2 kg/m3
333.13 K, 3575 kPa | 1256.7 kg/m3
333.13 K, 3608 kPa | 1257.2 kg/m3
333.13 K, 3641 kPa | 1257.6 kg/m3
333.13 K, 3670 kPa | 1258.2 kg/m3
333.13 K, 3699 kPa | 1258.5 kg/m3
333.13 K, 3726 kPa | 1258.9 kg/m3
333.13 K, 3767 kPa | 1259.4 kg/m3
333.13 K, 3793 kPa | 1259.7 kg/m3
333.13 K, 3826 kPa | 1260.3 kg/m3
333.13 K, 3860 kPa | 1260.8 kg/m3
333.13 K, 3894 kPa | 1261.2 kg/m3
333.13 K, 3924 kPa | 1261.5 kg/m3
333.13 K, 3950 kPa | 1261.9 kg/m3
333.13 K, 3984 kPa | 1262.2 kg/m3
333.13 K, 4010 kPa | 1262.9 kg/m3
333.13 K, 4041 kPa | 1263.1 kg/m3
333.13 K, 4072 kPa | 1263.5 kg/m3
333.13 K, 4105 kPa | 1264 kg/m3
333.13 K, 4143 kPa | 1264.4 kg/m3
